Laboratory results from patent publication US20040162247A1, “Therapeutic agent or osteoporosis comprising an active ingredient of quercetin derivatives” (priority 2000, published 2004).

How the values were obtained:
[1] = system: ALP activity in osteoblasts (Saos-2); assay: Alkaline phosphatase (ALP) activity in osteoblasts; assay type: cell-based, human; conditions: Saos-2, 3 days
Procedure: Since osteoblasts have cell specific alkaline phosphatase activity, the effect of quercetin of the invention on ALP activity in osteoblasts was evaluated as follows: the number of cells, concentration of tested agent, and culture condition were same as those used in MTT experiment of Example 1-2, and cells were harvested after 3 day-incubation. Genistein was used as a comparative agent. ALP activity was evaluated by analysing changes of OD at 405 nm result from hydrolysis of p-nitrophenylphosphate to p-nitrophenol and phosphate (see: Table 1).

[2] = system: human osteoblast-like cell line Saos-2; assay: Cell proliferation of Saos-2 cells, MTT method; assay type: cell-based; conditions: Saos-2, 3 days
Procedure: Saos-2 cell line which has similar properties to osteoblasts was obtained from Korean Cell Line Bank affiliated to the Cancer Research Institute of School of Medicine, Seoul National University.
Saos-2 cells were seeded in a RPMI 1640 medium (Gibco BRL, U.S.A.) supplemented with 10% (v/v) FBS, 100 unit/ml penicillin, 100 gg/ml streptomycin and grown to form a monolayer in an incubator at 37° C. under an environment of 5% (v/v) CO2 and saturated humidity. The culture was fed with fresh medium 2 to 3 times a week and subcultured once a week using 0.25% (w/v) trypsin.
Saos-2 cells were distributed into a 96-well plate (20,000 cells/well) and quercetin in 1% DMSO was added to a final concentration of 10-2 to 10^−9 mg/ml, 6 wells per each concentration. As a control group, cells without quercetin were used, and as a comparative group, the cells treated with various concentrations of genistein, being studied as a therapeutic agent for osteoporosis, were used. Cells were grown in an incubator at 37° C. for 3 days and incubated 4 more hours under the same condition after adding MTT (3-[4,5-dimethylthiazol-2-yl]-2,5-diphenyltetrazolium bromide, Triazolyl Blue) to a concentration of 0.05 mg/ml. Then, purple colored for-mazan formed in proportion to the number of viable cells was dissolved in DMSO and measured OD at 550 nm employing ELISA reader.
Cell proliferation rate (%) was evaluated by calculating the ratio of the OD of quercetin added well to the OD of control well, wherein, average value of ODs from 6 wells treated with the same concentration of quercetin was employed (see: Table 1).
cell proliferation rate (%)={(average value of OD at 550 nm of quercetin-treated wells—average value of OD at 550 nm of empty wells)/average value of OD at 550 nm of control wells}×100

ovariectomized rats [3] = assay: Biochemical parameters in plasma of ovariectomized rats; assay type: in vivo, Female SD (Sprague-Dawley) rats
Procedure: (§1) When test agents were administered, for a certain period of time before and after administration, 1.5 ml of blood was sampled from tail vein using a catheter (B.D Co.: 24 G) and subjected to complete blood count (Coulter Co.: JT) and biochemical analyses of plasma (Crone Co.: Airon® 200). During autopsy, blood was sampled from caudal venae cavae and subjected to the analyses above. And then, each sample was frozen to store for measurement of trabecular bone area of femur and examination of internal organs.
Since blood reflects the condition of body, safety of quercetin in the body was evaluated by measuring biochemical parameters: that is, blood samples were obtained from the rat prior to operation, one week after operation, and 10 weeks after operation, and measured were levels of alkaline phosphatase (ALP), calcium, inorganic phosphate, blood urea nitrogen (BUN), creatinin, total cholesterol, HDL-cholesterol and LDL-cholesterol (see: Table 8).

ovariectomized rats [4] = assay: Trabecular bone area of tibia in ovariectomized rats;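 on Change Rate (%) of TBA of tibia, of control group: control group rats were ovariectomized and are not the sham group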; assay type: in vivo, Female SD (Sprague-Dawley) rats; conditions: OVX rats, 9 weeks i.p. (E2 1 μg/kg/day; quercetin, genistein 10 mg/kg/day); for Change Rate (%) of TBA of tibia, of control group: control group = 100
Procedure: (§2) Trabecular bone area (TBA) of lumbar and tibia removed from the rats of each group which was treated with various agents for 9 weeks were measured as follows: that is, using a digitalizer of quantitative image analysis system (Wild Leitz Co.), image of each trabecula was obtained on computer monitor by drawing a contour of the trabecula, and then, using a computer, calculated were average areas of trabeculae within a rectangle of 2×10^6 μm^2 area wherein the width is about ⅔ of the length of growth plate which located underneath of growth plate at proximity of tibia. Also, following the number of trabeculae within the rectangle were obtained, average area was multiplied by the number of trabeculae to obtain trabecular bone area of each sample bone, which was analyzed statistically (see: Table 5).

ovariectomized rats [5] = assay: Trabecular bone area of lumbars in ovariectomized rats;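 on Change Rate (%) of TBA of lumbars, of control group: control group rats were ovariectomized and are not the sham group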; assay type: in vivo, Female SD (Sprague-Dawley) rats; conditions: OVX rats, 9 weeks i.p. (E2 1 μg/kg/day; quercetin, genistein 10 mg/kg/day); for Change Rate (%) of TBA of lumbars, of control group: control group = 100
Procedure: as §2
TBAs of lumbars removed from the animal treated with test agents for 9 weeks were measured employing the same method above (see: Table 6).

ovariectomized rats [6] = assay: Complete blood count in ovariectomized rats; assay type: in vivo, Female SD (Sprague-Dawley) rats
Procedure: as §1
Complete blood count which reflects the condition and abnormality of the body was measured to find out abnormality in test animals caused by administrtion of agents. That is, to find out changes in hematopoiesis of test rats, measured were red blood cell (RBC) count, concentration of hemoglobin (Hb) and hematocrit (Ht) of-blood samples obtained from the rats prior to operation and the rats 10 weeks after administrating agents following operation, and to find out changes in immune system such as inflammation and necrosis of tissues, measured were white blood cell count, lymphocyte count, monocyte count, and granulocyte count (see: Table 7).

[7] = 1 week after operation (start of administration)
[8] = 10 weeks after operation, 9 weeks i.p. (E2 1 μg/kg/day; quercetin, genistein 10 mg/kg/day)
[9] = after operation and drug administration (E2 1 μg/kg/day; quercetin, genistein 10 mg/kg/day i.p.)

O=c1c(-c2ccc(O)cc2)coc2cc(O)cc(O)c12 [Genistein, genistein]
ALP activity (% of control group) ([1]; 1 × 10^−2 mg/ml): 62.3 ± 3.4 % of control group
ALP activity (% of control group) ([1]; 1 × 10^−3 mg/ml): 98.8 ± 6.9 % of control group
ALP activity (% of control group) ([1]; 1 × 10^−4 mg/ml): 121.1 ± 6.2 % of control group
ALP activity (% of control group) ([1]; 1 × 10^−4 mg/ml, listed as genistein): 121 % of control group
ALP activity (% of control group) ([1]; 1 × 10^−5 mg/ml): 113.5 ± 7.3 % of control group
ALP activity (% of control group) ([1]; 1 × 10^−6 mg/ml): 103.8 ± 8.7 % of control group
ALP activity (% of control group) ([1]; 1 × 10^−7 mg/ml): 109.3 ± 9.6 % of control group
ALP activity (% of control group) ([1]; 1 × 10^−8 mg/ml): 101.5 ± 8.8 % of control group
ALP activity (% of control group) ([1]; 1 × 10^−9 mg/ml): 106.1 ± 6.4 % of control group
MTT assay (% of control group) ([2]; 1 × 10^−2 mg/ml): 66.2 ± 2.8 % of control group
MTT assay (% of control group) ([2]; 1 × 10^−2 mg/ml, listed as genistein): 66 % of control group
MTT assay (% of control group) ([2]; 1 × 10^−3 mg/ml): 85.5 ± 1.1 % of control group
MTT assay (% of control group) ([2]; 1 × 10^−3 mg/ml, listed as genistein): 86 % of control group
MTT assay (% of control group) ([2]; 1 × 10^−4 mg/ml): 95.7 ± 0.7 % of control group
MTT assay (% of control group) ([2]; 1 × 10^−5 mg/ml): 97.3 ± 1.6 % of control group
MTT assay (% of control group) ([2]; 1 × 10^−6 mg/ml): 90.5 ± 0.9 % of control group
MTT assay (% of control group) ([2]; 1 × 10^−6 mg/ml, listed as genistein): 90.5 % of control group
MTT assay (% of control group) ([2]; 1 × 10^−7 mg/ml): 95.9 ± 1.6 % of control group
MTT assay (% of control group) ([2]; 1 × 10^−8 mg/ml): 96.9 ± 2.7 % of control group
MTT assay (% of control group) ([2]; 1 × 10^−9 mg/ml): 91.3 ± 0.6 % of control group
MTT assay (% of control group) ([2]; 1 × 10^−9 mg/ml, listed as genistein): 91 % of control group
Concentration of ALP in plasma (ovariectomized rats [3]; [7]): 212.10 ± 17.92 U/dL
Concentration of HDL-cholesterol in plasma (ovariectomized rats [3]; [7]): 35.26 ± 1.92 mg/dL
Concentration of LDL-cholesterol in plasma (ovariectomized rats [3]; [7]): 60.47 ± 7.04 mg/dL
Concentration of blood urea nitrogen (BUN) (ovariectomized rats [3]; [7]): 18.26 ± 0.94 mg/dL
Concentration of calcium in plasma (ovariectomized rats [3]; [7]): 8.97 ± 0.29 mg/dL
Concentration of creatinin in plasma (ovariectomized rats [3]; [7]): 0.64 ± 0.02 mg/dL
Concentration of inorganic phosphate in plasma (ovariectomized rats [3]; [7]): 6.47 ± 0.16 mg/dL
Concentration of total cholesterol in plasma (ovariectomized rats [3]; [7]): 91.56 ± 3.65 mg/dL
Concentration of ALP in plasma (ovariectomized rats [3]; [8]): 127.14 ± 9.95^##$$ U/dL
Concentration of HDL-cholesterol in plasma (ovariectomized rats [3]; [8]): 29.27 ± 1.98 mg/dL
Concentration of LDL-cholesterol in plasma (ovariectomized rats [3]; [8]): 91.80 ± 6.57^##$$ mg/dL
Concentration of blood urea nitrogen (BUN) (ovariectomized rats [3]; [8]): 18.31 ± 0.86 mg/dL
Concentration of calcium in plasma (ovariectomized rats [3]; [8]): 10.44 ± 0.22^$ mg/dL
Concentration of creatinin in plasma (ovariectomized rats [3]; [8]): 0.82 ± 0.04^##$ mg/dL
Concentration of inorganic phosphate in plasma (ovariectomized rats [3]; [8]): 5.62 ± 0.25 mg/dL
Concentration of total cholesterol in plasma (ovariectomized rats [3]; [8]): 121.07 ± 6.53 mg/dL
Level of inorganic phosphate 10 weeks after operation versus prior to operation (in words) (ovariectomized rats [3]; OVX rats, 10 mg/kg/day i.p.): remarkably decreased
Plasma ALP activity 10 weeks after operation versus prior to and one week after operation (in words) (ovariectomized rats [3]; OVX rats, 10 mg/kg/day i.p.): significant decrease of ALP activity
Concentration of ALP in plasma (ovariectomized rats [3]; before operation (baseline)): 208.86 ± 19.72 U/dL
Concentration of HDL-cholesterol in plasma (ovariectomized rats [3]; before operation (baseline)): 61.12 ± 3.57 mg/dL
Concentration of LDL-cholesterol in plasma (ovariectomized rats [3]; before operation (baseline)): 24.39 ± 3.63 mg/dL
Concentration of blood urea nitrogen (BUN) (ovariectomized rats [3]; before operation (baseline)): 16.82 ± 0.60 mg/dL
Concentration of calcium in plasma (ovariectomized rats [3]; before operation (baseline)): 10.61 ± 0.49 mg/dL
Concentration of creatinin in plasma (ovariectomized rats [3]; before operation (baseline)): 0.51 ± 0.04 mg/dL
Concentration of inorganic phosphate in plasma (ovariectomized rats [3]; before operation (baseline)): 7.18 ± 0.48 mg/dL
Concentration of total cholesterol in plasma (ovariectomized rats [3]; before operation (baseline)): 85.51 ± 5.45 mg/dL
TBA (trabecular bone area) of tibia (ovariectomized rats [4]): 47.65 ± 2.07 ×10^4 μm^2
Change Rate (%) of TBA of tibia, of control group (ovariectomized rats [4]): 137.62 ± 5.98%
Change Rate (%) of TBA of tibia, of control group (ovariectomized rats [4]; listed as genistein): 138%
TBA (trabecular bone area) of lumbars (ovariectomized rats [5]): 86.58 ± 3.00 ×10^4 μm^2
Change Rate (%) of TBA of lumbars, of control group (ovariectomized rats [5]): 128.23 ± 4.45 %
Change Rate (%) of TBA of lumbars, of control group (ovariectomized rats [5]; listed as genistein): 128%
White blood cell count, before versus after operation (in words) (ovariectomized rats [6]; OVX rats after drug administration): did not show any changes
Concentration of hemoglobin(Hb) (ovariectomized rats [6]; [9]): 14.70 ± 0.22 g/dL
Granulocyte count (ovariectomized rats [6]; [9]): 2.38 ± 0.37 ×10^3 cells/μl
Hematocrit(Ht) (ovariectomized rats [6]; [9]): 40.66 ± 0.56 %
Lymphocyte count (ovariectomized rats [6]; [9]): 15.25 ± 3.21 ×10^3 cells/μl
Monocyte count (ovariectomized rats [6]; [9]): 0.80 ± 0.19 ×10^3 cells/μl
Red blood cell(RBC) count (ovariectomized rats [6]; [9]): 7.17 ± 0.13 ×10^6 cells/μl
White blood cell count (ovariectomized rats [6]; [9]): 21.50 ± 2.53 ×10^3 cells/μl
Concentration of hemoglobin(Hb) (ovariectomized rats [6]; before operation (baseline)): 15.82 ± 0.27 g/dL
Granulocyte count (ovariectomized rats [6]; before operation (baseline)): 2.23 ± 0.10 ×10^3 cells/μl
Hematocrit(Ht) (ovariectomized rats [6]; before operation (baseline)): 42.76 ± 0.65%
Lymphocyte count (ovariectomized rats [6]; before operation (baseline)): 19.68 ± 4.52 ×10^3 cells/μl
Monocyte count (ovariectomized rats [6]; before operation (baseline)): 0.77 ± 0.09 ×10^3 cells/μl
Red blood cell(RBC) count (ovariectomized rats [6]; before operation (baseline)): 7.32 ± 0.13 ×10^6 cells/μl
White blood cell count (ovariectomized rats [6]; before operation (baseline)): 27.30 ± 4.85 ×10^3 cells/μl
